From US10653691B2, “Method of promoting remyelination” (Case Western Reserve University, priority 2013, dated 2020)

Tests used:
[1] = tested on: mouse epiblast stem cell (EpiSC)-derived OPCs; assay: Primary in vitro phenotypic screen of OPCs (MBP process length and intensity, high content imaging); assay type: cell-based; settings: 5 μM, 72 h, 727 drugs
Description: For the primary screen, OPCs were treated with vehicle alone (0.05% (v/v)DMSO) as a negative control, thyroid hormone (a known OPC differentiation inducer) as a positive control, or drug dissolved in DMSO at a concentration of 5 μM. After 72 h, cells were fixed and labeled with antibodies to myelin basic protein (MBP) and the length and intensity of MBP labeled oligodendrocyte processes measured (FIG. 1A). These features were reliable indicators of alteration in cellular phenotype, as indicated by consistency and high signal to background ratio of positive and vehicle controls across all screening plates (FIG. 5D-G). […] On the basis of this analysis, we identified the 22 drugs that enhanced oligodendrocyte formation greater than five standard deviations above DMSO treatment and outperformed thyroid hormone in the measured parameters (FIG. 1B).
EpiSC-derived OPCs were seeded onto poly-D-lysine 96-well Viewplate or CellCarrier plates (PerkinElmer) coated with laminin (Sigma, L2020; 10 μgml^−1) using electronic multichannel pipetors. […] All plates for the primary screen were processed and analyzed simultaneously to eliminate variability.
For the 5 μM in vitro screen, stained plates were imaged on the Opera confocal imaging system (PerkinElmer) and a set of 24×10 fields were collected from each well, resulting in an average of 10,000 cells being scored per well. […]

ERK1/2 = assay: Western blot of ERK1/2 phosphorylation in OPCs; assay type: cell-based, mouse; settings: for induction of ERK1/2 phosphorylation in OPCs: OPCs treated for 1 h
Description: EpiSC-derived OPCs were seeded into poly-Lornithine/laminin coated six-well plates and allowed to attach for 2 h in DMEM/F12 without additional factors. Cells were treated with indicated inhibitors or DMSO for 1 h-SCH772984 (ChemieTek, […]), SB590885 (Tocris, 10 nM), LY294002 (Tocris, 10 μM), and PD0325901 (Stemgent, 1 μM). Cells were then stimulated with drug or FGF2 (R&DSystems; 20 ng ml^−1) for 1 h and then lysed in 200 μL RIPA buffer (0.15 M NaCl, 0.05M Tris, pH=8.0, 1 mM EDTA, 1% Triton X-100, 0.1% SDS, 10% glycerol, HALT protease and phosphatase inhibitor (Thermo Fisher) added just before use) and incubated on ice for 20 min. Lysates were centrifuged at 4° C. and supernatant collected. Protein concentrations were determined by Pierce BCA protein assay kit (Thermo Fisher). Equal amounts of protein were resolved in a reduced manner on NuPAGE 4-12% Bis-Tris gels (Life Technologies) and transferred onto PVDF membranes (Life Technologies). Blots were blocked in either 5% BSA (phosphoprotein) or 5% milk (non phosphoprotein). Primary antibodies were all from the same vendor (Cell Signaling) and included phospho-Erk1/2 (4370S, clone D13.14.4E; 1:2,000), ERK1/2 (9107S, clone 3A7; 1:2,000), phospho-glucocorticoid receptor (4161S; 1:1,000), and glucocorticoid receptor (12041, clone D6H2L; 1:1,000) followed by incubation with HRP-conjugated secondary antibodies and chemiluminescent enhancement by West Pico substrate (Thermo Fisher).

MOG35-55 EAE mouse model = assay: MOG35-55 chronic progressive EAE model
Description: Immunohistochemistry was performed as previously described. In short, tissue sections or whole slices were washed three times in PBS, blocked in PBS containing Triton X-100 (0.1%) and normal donkey serum (NDS, 2% for sections and 10% for cerebellar slices) and incubated with primary antibody overnight. For MBP immunohistochemistry, the primary antibody solution consisted of 2% NDS, 2% bovine serum albumin, and 0.1% saponin. For all other antibodies, the primary antibody solution consisted of 2% NDS and 0.1% Triton X-100. Primary antibodies used included rat anti-MBP (Abcam, ab7349; 1:100), mouse anti-APC CC1 clone (Millipore, MABC200; 1:500), and rabbit anti-IBA1 (Wako Chemicals, 019-19741; 1:1,000). The tissue was then washed in PBS and incubated in secondary antibodies for […]. Secondary detection was performed with Alexa Fluor-conjugated secondary antibodies (1:500) for 1 h. Luxol fast blue staining was performed as previously described.
Samples were processed as previously described. In short, samples were osmicated, stained en bloc with uranyl acetate, and embedded in EMbed 812, an Epon-812 substitute (EMS). Sections (1 μm) were cut and stained with toluidine blue and visualized on a light microscope (Leica DM5500B). Additional thin sections were cut, carbon coated and imaged either on a JEOL JEM-1200-EX electron microscope or a T12 electron microscope (FEI).
EAE was induced by immunizing 10-week-old C57BL/6 female mice with […] injection of […] complete Freund's adjuvant emulsion (Hooke Laboratories). One hour after immunization, mice were given 100 ng of pertussis toxin by 100 μl intraperitoneal injection. A second dose of pertussis toxin was administered the next day. EAE onset was monitored daily and scored using a clinical scale where 0 represented no abnormality; 1, limp tail; 2, limp tail and hind limb weakness; 3, hind limb paralysis; 4, hind limb paralysis and forelimb weakness; and 5, moribund. […] Once mice reached peak of disease ˜day 15; clinical score=3) they were randomized into treatment groups, and drug or vehicle (DMSO in saline) was administered intraperitoneally daily for 10 days (n=12-16 mice per group). […] Experimenters were blinded to the identity of the treatments and animals were scored daily. Cumulative disease scores for each animal were calculated during the treatment period, and a two-tailed t-test compared drug—with vehicle-treated groups. The extent of recovery for each animal was calculated as the difference between the peak disease score and the score at the end of each experiment, and a two-tailed t-test was used to compare each treatment with vehicle. External validation of MOG35-55 EAE experiments (n=12 mice per group) was performed at Hooke Laboratories with experimenters blinded to the identity of the substances.

mouse OPCs = assay: OPC differentiation into MBP+ oligodendrocytes; assay type: cell-based; settings: 72 h, seven doses 0.01-6.7 μM
Description: EpiSC-derived OPCs were seeded onto poly-D-lysine 96-well Viewplate or CellCarrier plates (PerkinElmer) coated with laminin (Sigma, L2020; 10 μgml^−1) using electronic multichannel pipetors. For the primary screen, 30,000 cells were seeded per well in screening medium (DMEM/F12 supplemented with N2 (R&D Systems), B-27 (Life Technologies), neurotrophin 3 (R&D Systems; 10 ng ml^−1), cAMP (Sigma; 50 μM), IGF-1 (R&D Systems; 100 ng ml^−1), noggin (R&D Systems; 100 ngml^−1)) and allowed to attach for 2 h before addition of drug. NIH Clinical Collection I and II drugs were added to assay plates with 0.1 ml pin replicators (Molecular Devices, Genetix; X5051), resulting in a final primary screening concentration of 5 μM. Thyroid-hormone-positive controls and DMSO vehicle controls were included in each assay plate. Cells were incubated under standard conditions (37° C., 5% CO2) for 3 days and fixed with 4% paraformaldehyde (PFA) in phosphate buffered saline (PBS). Fixed plates were permeabilized with 0.1% Triton X-100 and blocked with 10% donkey serum (v/v) in PBS for 2 h. Cells were labelled with MBP antibodies (Abcam, ab7349; 1:100) for 1 h at room temperature (˜22° C.) followed by detection with Alexa Fluorconjugated secondary antibodies (1:500) for 45 min. Nuclei were visualized by DAPI staining (Sigma; 1 μgml^−). All plates for the primary screen were processed and analyzed simultaneously to eliminate variability.
For the 5 μM in vitro screen, stained plates were imaged on the Opera confocal imaging system (PerkinElmer) and a set of 24×10 fields were collected from each well, resulting in an average of 10,000 cells being scored per well. For the dose-response (6.7 μM, 5 μM, 3.3 μM, 1.7 μM, 666 nM, 500 nM, and 333 nM) in vitro assays, plates were imaged on the Operetta High Content Imaging and Analysis system (PerkinElmer) and a set of 14×20 fields captured from each well resulting in an average of 3,300 cells being scored per well. […] Each traced nucleus region was then expanded by 50% and cross-referenced with the mature myelin protein (MBP or PLP1) stain to identify oligodendrocyte nuclei, and from this the percentage of oligodendrocytes was calculated. Processes emanating from oligodendrocyte nuclei were identified using the CSIRO2 analysis module within a custom Acapella script. Maximum mean process length (denoted ‘process length’) and mean process intensity (denoted ‘process intensity’) were generated on a per well basis. For the 5 μM in vitro screen, values were calculated and normalized to 100 for thyroid hormone (positive control)-treated wells and to 0 for DMSO(vehicle)-treated wells, on a per plate basis.

SMILES | hit status / activity in the primary screen (MBP process length and intensity) [1] | induction of ERK1/2 phosphorylation in OPCs (ERK1/2) | further results
COc1cc2c(cc1OC)C(=O)C(CC1CCN(Cc3ccccc3)CC1)C2 (centres unmarked) [Donepezil] | identified in the primary screen |  | 
O=C(NOC[C@H](O)CO)c1ccc(F)c(F)c1Nc1ccc(I)cc1F [PD0325901] |  |  | block of miconazole-induced ERK1/2 phosphorylation (ERK1/2; OPCs, inhibitor 1 μM for 1 h, then miconazole): blocked the ability of miconazole to induce ERK1/2 phosphorylation
CN1[C@@H]2CC[C@H]1C[C@@H](OC(c1ccccc1)c1ccccc1)C2 [benztropine] | one of the top 22 drugs | did not induce ERK1/2 phosphorylation | areas of myelin disruption in the white matter (luxol fast blue, MBP immunohistochemistry) (MOG35-55 EAE mouse model; cervical spinal cords): decrease in areas of myelin disruption in the white matter; functional improvement (disease score) (MOG35-55 EAE mouse model; daily i.p. for 10 days from peak of disease, miconazole 10 mg/kg, clobetasol 2 mg/kg, benztropine 10 mg/kg): functional improvement, but to a lesser extent than miconazole and clobetasol
C[C@@H](c1ncncc1F)[C@](O)(Cn1cncn1)c1ccc(F)cc1F [voriconazole] |  | failed to induce changes in ERK1/2 phosphorylation | differentiation of OPCs into oligodendrocytes (mouse OPCs): did not promote the differentiation of OPCs into oligodendrocytes
